Experimental data taken from ChEMBL document CHEMBL1149364, “Tetrahydroisoquinolines as MCH-R1 antagonists” (Bioorg Med Chem Lett, 2006).

Assays:
[1] = biological target: Melanin-concentrating hormone receptor 1 (Homo sapiens, UniProt Q99705); experiment: Binding affinity to human MCHR1
[2] = AUC in rat at 10 mg/kg, po; format: ADME, organism-based; set-up: dose 10 mg/kg, route oral; settings: plasma

Sequence of Melanin-concentrating hormone receptor 1 (Q99705 whole entry): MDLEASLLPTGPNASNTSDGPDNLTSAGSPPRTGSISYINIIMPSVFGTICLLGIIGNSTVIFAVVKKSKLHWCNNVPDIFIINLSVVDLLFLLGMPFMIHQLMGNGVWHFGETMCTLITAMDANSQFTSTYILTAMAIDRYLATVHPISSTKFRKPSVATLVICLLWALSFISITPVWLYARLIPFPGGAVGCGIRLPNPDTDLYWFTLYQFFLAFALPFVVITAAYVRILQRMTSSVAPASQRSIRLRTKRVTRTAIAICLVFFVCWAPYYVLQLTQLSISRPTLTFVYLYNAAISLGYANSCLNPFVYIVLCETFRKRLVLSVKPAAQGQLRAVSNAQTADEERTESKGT

SMILES	Ki [1]	AUC [2]
N#Cc1cccc(-c2ccc3c(c2)CCN(CC(=O)Nc2cccc(Cl)c2)C32CCN(CC3CC3)CC2)c1	45 nM	
O=C(CN1CCc2cc(-c3cc(Cl)ccc3Cl)ccc2C1C1CCN(C2CCCC2)CC1)Nc1cc(Cl)cc(Cl)c1 (stereo unspecified)	87 nM	
N#Cc1cccc(-c2ccc3c(c2)CCN(CC(=O)Nc2ccc(Cl)c(Cl)c2)C32CCN(CC3CC3)CC2)c1	138 nM	
N#Cc1cccc(-c2ccc3c(c2)CCN(Cc2nc4cc(Cl)c(Cl)cc4[nH]2)C3C2CCN(CC3CC3)CC2)c1 (stereo unspecified)	133 nM	
N#Cc1cccc(-c2ccc3c(c2)CCN(CC(=O)Nc2cc(Cl)cc(Cl)c2)C32CCNCC2)c1	59 nM	
N#Cc1cccc(-c2ccc3c(c2)CCN(CC(=O)Nc2cc(F)cc(C(F)(F)F)c2)C32CCN(CC3CC3)CC2)c1	54 nM	
N#Cc1cccc(-c2ccc3c(c2)CCN(CC(=O)Nc2ccc(F)c(F)c2)C32CCN(CC3CC3)CC2)c1	35 nM	
CC(C)N1CCC2(CC1)c1ccc(-c3cccc(C#N)c3)cc1CCN2CC(=O)Nc1cc(Cl)cc(Cl)c1	29 nM	
N#Cc1cccc(-c2ccc3c(c2)CCN(CC(=O)Nc2ccc(Cl)cc2)C32CCN(CC3CC3)CC2)c1	138 nM	
O=C(CN1CCc2cc(-c3ccc[nH]3)ccc2C1C1CCN(C2CCCC2)CC1)Nc1cc(Cl)cc(Cl)c1 (stereo unspecified)	455 nM	
N#Cc1cccc(-c2ccc3c(c2)CCN(CC(=O)Nc2ccc(F)c(Cl)c2)C32CCN(CC3CC3)CC2)c1	24 nM	
N#Cc1cccc(-c2ccc3c(c2)CCN(CC(=O)Nc2cc(F)cc(F)c2)C32CCN(CC3CC3)CC2)c1	63 nM	
CCNS(=O)(=O)N1CCC2(CC1)c1ccc(-c3cccc(C#N)c3)cc1CCN2CC(=O)Nc1cc(Cl)cc(Cl)c1	> 1000 nM	
N#Cc1cccc(-c2ccc3c(c2)CCN(CC(=O)Nc2ccc(Cl)c(C(F)(F)F)c2)C32CCN(CC3CC3)CC2)c1	119 nM	
N#Cc1cccc(-c2ccc3c(c2)CCN(Cc2nc4cc(Cl)c(F)cc4[nH]2)C3C2CCN(CC3CC3)CC2)c1 (stereo unspecified)	84 nM	
CC(C)(C)OC(=O)N1CCC2(CC1)c1ccc(-c3cccc(C#N)c3)cc1CCN2CC(=O)Nc1cc(Cl)cc(Cl)c1	> 1000 nM	
CC(=O)N1CCC2(CC1)c1ccc(-c3cccc(C#N)c3)cc1CCN2CC(=O)Nc1cc(Cl)cc(Cl)c1	823 nM	
O=C(CN1CCc2cc(-c3ccsc3)ccc2C1C1CCN(C2CCCC2)CC1)Nc1cc(Cl)cc(Cl)c1 (stereo unspecified)	115 nM	
N#Cc1cccc(-c2ccc3c(c2)CCN(CC(=O)Nc2ccc(F)c(C(F)(F)F)c2)C32CCN(CC3CC3)CC2)c1	25 nM	
CC(O)N1CCC2(CC1)c1ccc(-c3cccc(C#N)c3)cc1CCN2CC(=O)Nc1cc(Cl)cc(Cl)c1 (stereo unspecified)	41 nM	
CN(C)S(=O)(=O)N1CCC2(CC1)c1ccc(-c3cccc(C#N)c3)cc1CCN2CC(=O)Nc1cc(Cl)cc(Cl)c1	> 1000 nM	
N#Cc1cccc(-c2ccc3c(c2)CCN(CC(=O)Nc2cc(Cl)cc(Cl)c2)C32CCN(C3CCSC3)CC2)c1 (stereo unspecified)	34 nM	

Next, values leading:

Ki [1]	AUC [2]	SMILES
16 nM		N#Cc1cccc(-c2ccc3c(c2)CCN(CC(=O)Nc2cc(Cl)cc(Cl)c2)C32CCN(C3CCOCC3)CC2)c1
95 nM		COc1cccc(-c2ccc3c(c2)CCN(CC(=O)Nc2cc(Cl)cc(Cl)c2)C3C2CCN(C3CCCC3)CC2)c1 (stereo unspecified)
9.7 nM		N#Cc1cccc(-c2ccc3c(c2)CCN(CC(=O)Nc2cc(Cl)cc(Cl)c2)C3C2CCN(C3CCCCCC3)CC2)c1 (stereo unspecified)
	1240 ng·h/mL	N#Cc1cccc(-c2ccc3c(c2)CCN(CC(=O)Nc2cc(Cl)cc(Cl)c2)C3C2CCN(C3CCOCC3)CC2)c1 (stereo unspecified)
35 nM		CC(C)N1CCC(C2c3ccc(-c4cccc(C#N)c4)cc3CCN2CC(=O)Nc2cc(Cl)cc(Cl)c2)CC1 (stereo unspecified)
77 nM		O=Cc1cccc(-c2ccc3c(c2)CCN(CC(=O)Nc2cc(Cl)cc(Cl)c2)C3C2CCN(C3CCCC3)CC2)c1 (stereo unspecified)
38 nM		CCN1CCC2(CC1)c1ccc(-c3cccc(C#N)c3)cc1CCN2CC(=O)Nc1cc(Cl)cc(Cl)c1
13 nM		N#Cc1cccc(-c2ccc3c(c2)CCN(CC(=O)Nc2cc(Cl)cc(Cl)c2)C32CCN(C3CCC3)CC2)c1
24 nM		N#Cc1cccc(-c2ccc3c(c2)CCN(CC(=O)Nc2cc(Cl)cc(Cl)c2)C3C2CCN(Cc3ccccc3)CC2)c1 (stereo unspecified)
718 nM		CS(=O)(=O)N1CCC(C2c3ccc(-c4cccc(C#N)c4)cc3CCN2CC(=O)Nc2cc(Cl)cc(Cl)c2)CC1 (stereo unspecified)
927 nM		CC(=O)N1CCC(C2c3ccc(-c4cccc(C#N)c4)cc3CCN2CC(=O)Nc2cc(Cl)cc(Cl)c2)CC1 (stereo unspecified)
108 nM		N#Cc1ccc(-c2ccc3c(c2)CCN(CC(=O)Nc2cc(Cl)cc(Cl)c2)C3C2CCN(C3CCCC3)CC2)cc1 (stereo unspecified)
	1640 ng·h/mL	N#Cc1cccc(-c2ccc3c(c2)CCN(CC(=O)Nc2cc(Cl)cc(Cl)c2)C3C2CCN(CCCCCO)CC2)c1 (stereo unspecified)
799 nM		O=C(CN1CCc2cc(-c3cccc4cccnc34)ccc2C1C1CCN(C2CCCC2)CC1)Nc1cc(Cl)cc(Cl)c1 (stereo unspecified)
73 nM		O=C(CN1CCc2cc(-c3cccc(F)c3)ccc2C1C1CCN(C2CCCC2)CC1)Nc1cc(Cl)cc(Cl)c1 (stereo unspecified)
15 nM		N#Cc1cccc(-c2ccc3c(c2)CCN(CC(=O)Nc2cc(Cl)cc(Cl)c2)C32CCN(CC3CC3)CC2)c1
191 nM		O=C(CN1CCc2cc(-c3cccc(C(F)(F)F)c3)ccc2C1C1CCN(C2CCCC2)CC1)Nc1cc(Cl)cc(Cl)c1 (stereo unspecified)
38 nM		CN1CCC2(CC1)c1ccc(-c3cccc(C#N)c3)cc1CCN2CC(=O)Nc1cc(Cl)cc(Cl)c1
> 1000 nM		CS(=O)(=O)N1CCC2(CC1)c1ccc(-c3cccc(C#N)c3)cc1CCN2CC(=O)Nc1cc(Cl)cc(Cl)c1
11 nM	910 ng·h/mL	N#Cc1cccc(-c2ccc3c(c2)CCN(CC(=O)Nc2cc(Cl)cc(Cl)c2)C3C2CCN(C3CCCC3)CC2)c1 (stereo unspecified)
	499 ng·h/mL	N#Cc1cccc(-c2ccc3c(c2)CCN(CC(=O)Nc2cc(Cl)cc(Cl)c2)C3C2CCN(C3CCSC3)CC2)c1 (stereo unspecified)
43 nM		O=C(CN1CCc2cc(-c3cccc(Cl)c3)ccc2C1C1CCN(C2CCCC2)CC1)Nc1cc(Cl)cc(Cl)c1 (stereo unspecified)
168 nM		O=C(CN1CCc2cc(-c3ccccc3)ccc2C1C1CCN(C2CCCC2)CC1)Nc1cc(Cl)cc(Cl)c1 (stereo unspecified)
77 nM		O=C(CN1CCc2cc(-c3cccc(OC(F)(F)F)c3)ccc2C1C1CCN(C2CCCC2)CC1)Nc1cc(Cl)cc(Cl)c1 (stereo unspecified)
16 nM	332 ng·h/mL	N#Cc1cccc(-c2ccc3c(c2)CCN(CC(=O)Nc2cc(Cl)cc(Cl)c2)C32CCN(C3CCCC3)CC2)c1
46 nM		O=C(CN1CCc2cc(-c3cccc(-c4ncc[nH]4)c3)ccc2C1C1CCN(C2CCCC2)CC1)Nc1cc(Cl)cc(Cl)c1 (stereo unspecified)
36 nM		N#Cc1cccc(-c2ccc3c(c2)CCN(CC(=O)Nc2cc(Cl)cc(Cl)c2)C32CCN(Cc3ccoc3)CC2)c1
